Key:
[1] = system: psoriasis and contact dermatitis; assay: Conclusion of clinical testing (psoriasis and contact dermatitis); type: in vivo, patients; details: active formulations
Protocol: 1. Patients with wide-spread psoriasis receiving systemic treatment with methotrexate, retinoids or topical treatment with dithranol or tar-preparations. An area of 5×5 cm^2 was used for treatment with compositions 1, 2 and 3 in an increasing concentration. A total of 5 patients were treated on in-patient basis, and the results were evaluated 2-3 times a week.
2. In 3 out of 5 other patients treated with 5-ASA cream under occulsion with a thin plastic film a dramatic effect was seen after 4-6 days.
3. 5% 5-ASA cream and placebo cream was compared in a randomized, double-blind, bilaterial trial with 5 psoriatic in-patients. Two contralateral psoriasis plaques of the same severity were treated for one week with the 5-ASA cream and placebo cream, respectively, with the concomitant use of an occulsive dressing.
4. 5% 4-ASA cream and placebo cream were compared in a randomized, double blind, bilateral trial with 10 psoriasis out-patients. […]
Ten patients with known nickel allergy and 15 patients with known allergy to other compounds were tested with 5% 5-ASA cream and placebo cream in a randomized, double blind, bilateral trial. […] The study areas were occluded with Finn chambers for 48 hours, and the patients' symptoms were recorded. After 72 hours, the patch test reactions were evaluated and the patients' symptoms recorded.

[2] = In vivo absorption of 4-ASA (serum and urine) in healthy volunteers; details: for Highest serum levels recalculated to treatment of the whole body, passive and active side: versus 4-ASA perorally in tuberculosis treatment
[3] = In vitro dermal absorption in Franz Diffusion cells; type: in vitro ADME, human; details: for Detection of unchanged prodrug after penetration of the skin / Production of 5-ASA in free form after absorption / Absorbed amounts, 5-ASA versus prodrug No. 350: human skin in vitro
Protocol: Franz Diffusion cells (FDC) are systems for the measurements of percutaneous absorption by the finite dose technique. Human skin is mounted in specially constructed diffusion chambers (FDC), and the skin is batched from below by a reservoir solution. 3×10 μl solution (1 mg/ml) of the following compounds were applied to human skin in Franz diffusion cells (0.636 cm^2) and kept at 37° C. by thermostatic control: Compound 1=5-ASA […] Samples were taken from the reservoir at intervals for 76 hours and analyzed by HPLC for 5-ASA and the prodrugs themselves.

[4] = chronic inflammatory bowel disease; cited from earlier work
psoriasis plaques = assay: Randomized, bilateral trial of 5% 5-ASA cream vs placebo, 48 psoriasis patients; type: in vivo
Protocol: Objective: To compare 5% 5-ASA cream with placebo cream in psoriasis patients.
5% 5-ASA cream and placebo cream were compared in a randomized, bilateral trial with 48 psoriasis patients (24 hospitalized and 24 out-patients). Two contralateral psoriasis plaques (5×5 cm^2 -10×10 cm^2) of the same severity were treated 3 times daily for two weeks (occulsion at night) with the 5-ASA and placebo creams, respectively.
Any reported adverse reactions were noted.
The differences between the "active side" (treated with 5-ASA) and the "placebo side" were statistically tested by a binomial distribution test.

nickel allergy = assay: Contact dermatitis/allergy test, patients with nickel allergy; type: in vivo; details: 5% 5-ASA cream vs placebo; after 72 hours
Protocol: (§1) Ten patients with known nickel allergy and 15 patients with known allergy to other compounds were tested with 5% 5-ASA cream and placebo cream in a randomized, double blind, bilateral trial. The allergen was applied on two 1×1 cm^2 areas and the study creams were then applied on the left and right 2×2 cm^2 study areas, respectively. The study areas were occluded with Finn chambers for 48 hours, and the patients' symptoms were recorded. After 72 hours, the patch test reactions were evaluated and the patients' symptoms recorded.

[5] = system: allergy to other compounds; assay: Contact dermatitis/allergy test, patients with allergy to other compounds; type: in vivo; details: 5% 5-ASA cream vs placebo
Protocol: as §1

[6] = In vivo dermal absorption of 5-ASA (serum and urine) in healthy volunteers
Protocol: Serum concentrations and the amount excreted in urine of 5-ASA and the 5-ASA metabolite: […] The study was performed as an open study, divided into the following parts: Part I: 2 volunteers, normal skin, single dose. Part IA: 1 volunteer, stripped skin and 1 volunteer, normal skin and occlusion, single dose. Part IB: 1 volunteer, stripped skin and occlusion, single dose. Part II: 6 volunteers, stripped skin day 1, and occlusion day 1 and day 8, multiple doses. Part I, IA and IB: 0.5 g 5% 5-ASA cream was applied to one forearm of the volunteer and blood samples were taken at intervals for 6 hours from both arms. 24 hour urine samples were collected. […] Blood and urine were collected as described above on day 1 and 8. […] Clinical chemistry tests showing the state of the patient (blood status, liver and kidney function, etc.) were performed before and after the study.

rat = details: intravenously; cited from earlier work
[7] = human, serum, topical or ocular, 25 mg
[8] = % of dose through the skin during 76 hours, 3×10 μl of 1 mg/ml, 37° C.
[9] = human, in vivo, topical or ocular

SMILES: Nc1ccc(C(=O)O)c(O)c1 [Example 4-ASA, 4-aminosalicylic acid]
- Efficacy vs placebo in comparative trials [1]: more efficient than placebo
- concentration at 0.25 h [2, 7]: 24 ng/mL
- concentration at 0.5 h [2, 7]: 43 ng/mL
- concentration at 1.5 h [2, 7]: 16 ng/mL
- Highest serum levels recalculated to treatment of the whole body, passive and active side [2]: within the values reported after use of 4-ASA perorally in tuberculosis treatment

SMILES: CCOC(=O)c1cc(N)ccc1O [Prodrug No. 345, Ethyl 2-hydroxy-5-aminobenzoate]
- % absorbed, compound measured: 5-ASA [3, 8]: 18.2-24.0%
- % absorbed, compound measured: prodrug itself [3, 8]: 36.1-45.4%
- Enhanced absorption, % of the dose ([3]; as much as, 76 hours): ≤ 70 % of the dose
- Detection of unchanged prodrug after penetration of the skin [3]: detected unchanged after penetration of the skin
- Production of 5-ASA in free form after absorption [3]: could produce 5-ASA in free form after absorption through human skin in vitro

SMILES: CC(=O)Nc1ccc(C(=O)O)c(O)c1 [Ac-4-ASA, N-acetyl-4-aminosalicylic acid]
- Highest serum levels recalculated to treatment of the whole body, passive and active side [2]: within the values reported after use of 4-ASA perorally in tuberculosis treatment
- Amount in urine ([2]; versus peroral administration): very small amounts in urine

SMILES: Nc1ccc(S(=O)(=O)Nc2ccccn2)cc1 [Sulphapyridine]
- Side effects after treatment with salazosulphapyridine [4]: responsible for the side effects reported after treatment with salazosulphapyridine

SMILES: CCOC(=O)c1cc(N)ccc1OC(C)=O [Prodrug No. 350, Ethyl 2-acetoxy-5-aminobenzoate]
- % absorbed, compound measured: 5-ASA [3, 8]: 11.9-16.8%
- Absorbed amounts, 5-ASA versus prodrug No. 350 [3]: of the same size
- Detection of unchanged prodrug after penetration of the skin [3]: could not be detected unchanged
- Production of 5-ASA in free form after absorption [3]: could produce 5-ASA in free form after absorption through human skin in vitro

SMILES: Nc1ccc(O)c(C(=O)O)c1 [Example 5-ASA, 5-aminosalicylic acid, reference compound]
- Effect compared to placebo (conclusion) (psoriasis plaques): A significant effect
- Patients showing no difference regarding pruritus (nickel allergy): two
- Patients with preference to 5-ASA regarding pruritus (nickel allergy): Seven out of 10
- Patients with preference to 5-ASA side, investigator's opinion and patch tests (nickel allergy): 9 out of 10
- Preference of patients vs placebo [5]: about twice as many patients preferred the 5-ASA treatment in comparison with placebo
- Efficacy vs placebo in comparative trials [1]: more efficient than placebo
- % absorbed, compound measured: 5-ASA [3, 8]: 7.8-15.6%
- Absorbed amounts, 5-ASA versus prodrug No. 350 [3]: of the same size
- Absorption through normal skin ([6]; 5% 5-ASA cream, normal skin): No absorption through normal skin was detected
- Absorption through occluded skin ([6]; 5% 5-ASA cream, occluded skin, late): Small amounts
- Absorption through both stripped and occluded skin ([6]; 5% 5-ASA cream, stripped and occluded skin): larger amounts
- Absorption through stripped skin ([6]; 5% 5-ASA cream, stripped skin, early): Small amounts
- Maximum serum concentration recalculated to treatment of the whole body, active side ([6]; human, in vivo): 2-3 times the values reported in studies with SASP
- Maximum serum concentration recalculated to treatment of the whole body, passive side ([6]; human, in vivo): within the values reported in studies with salazosulphapyridine (SASP)
- concentration at 0.25 h [6, 9]: 19.4 ng/mL
- concentration at 0.5 h [6, 9]: 8.3 ng/mL
- concentration at 0.75 h [6, 9]: 7.3 ng/mL
- concentration at 1 h [6, 9]: 8.2 ng/mL
- concentration at 1.5 h [6, 9]: 7.1 ng/mL
- concentration at 2 h [6, 9]: 3.9 ng/mL
- concentration at 4 h [6, 9]: 17.2 ng/mL
- concentration at 6 h [6, 9]: 22.9 ng/mL
- Nephrotoxic dose (rat): 300 to 900 mg/kg

SMILES: CC(=O)Nc1ccc(O)c(C(=O)O)c1 [Ac-5-ASA, 2-Hydroxy-5-acetamidobenzoic acid]
- Amount in urine versus peroral or rectal administration ([6]; human, in vivo): much lower in percentages than after peroral or rectal administration
- Maximum serum concentration recalculated to treatment of the whole body, active side ([6]; human, in vivo): 2-3 times the values reported in studies with SASP
- Maximum serum concentration recalculated to treatment of the whole body, passive side ([6]; human, in vivo): within the values reported in studies with salazosulphapyridine (SASP)
- Recovery in urine ([6]; human, in vivo): Only Ac-5-ASA were recovered in urine
- Median serum concentration ([6]; human, in vivo, topical or ocular, 0.25 h): 13.5 ng/mL
- Median serum concentration ([6]; human, in vivo, topical or ocular, 0.5 h): 7.0 ng/mL
- Median serum concentration ([6]; human, in vivo, topical or ocular, 0.75 h): 10.3 ng/mL
- Median serum concentration ([6]; human, in vivo, topical or ocular, 1.5 h): 14.6 ng/mL
- Median serum concentration ([6]; human, in vivo, topical or ocular, 3 h): 8.2 ng/mL

Source: patent publication US4933330A, “Benzoic acid derivatives and use thereof” (priority 1987, dated 1990)
